These are literature values, as cited in publication PMC10126514, “The interaction of peptide inhibitors and Aβ protein: Binding mode analysis, inhibition of the formation of Aβ aggregates, and then exert neuroprotective effects” (Frontiers in Aging Neuroscience, 2023).

For data set [1] the following is noted: ref Wang et al., 2019, Behl et al., 2020, Tolar et al.; cited from earlier work.
The test system of data set [2] is rat primary cortical neurons. The arrangement: method as in Pradhan et al., 2019. To be noted: ref Pradhan et al., 2019; cited from earlier work.

On to `CCN(C)C(=O)Oc1cccc([C@H](C)N(C)C)c1` [rivastigmine], for which, in data set [1], the Potential side effects result was “Diarrhea, vomiting, nausea, and abdominal cramps”. Consider Ser-Leu-Lys-Pro [SLKP, tetrapeptide], for which, in data set [2], the Neurite growth result is “promoted significant neurite growth” and the “Neuroprotection against Aβ-mediated toxicity” value is reported as “significant neuroprotection against Aβ-mediated toxicity”.
